In PMC11738990, “A small-molecule TNIK inhibitor targets fibrosis in preclinical and clinical models” (Nature Biotechnology, 2024):
Where “and” joins values, the source holds several entries; their conditions need not be identical. Identical values can stand only once.

Experiments:
C57BL/6 mice [1] = assay: LPS-induced acute lung injury model; type: in vivo, mouse; conditions: G3 Dex 10mpk BID; individual animals, Fig 3E-F; listed as Dex;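 note: bronchoalveolar lavage fluid sampled one day after intratracheal LPS challenge, cytokines measured by ELISA in supernatant, lymphocytes counted on Diff-Quick stained cytospin smears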
Protocol: One day before the first experimental day, animals were grouped. All mice were anesthetized with Zoletil–xylazine (50 mpk and 10 mpk, i.p.). At 0 h, mice received LPS at a dose of 50 μl as 50 μg per mouse (groups 2–5, n = 8 per group) or 50 μl saline (group 1, n = 8 per group) by intratracheal administration. […] In the dexamethasone group (group 5), animals were treated with dexamethasone both 2 h before and 4 h after the LPS challenge. Twenty-four hours after the LPS challenge, animals were euthanized, and BALF samples were collected.
(§1) Mice were first anesthetized with Zoletil–xylazine (50 mpk and 10 mpk, i.p.). Next, a 1.5–2-cm longitudinal incision was made on the ventral side of the neck to expose the trachea by blunt dissection, and curved forceps were placed underneath the trachea. A 10–12-cm piece of suture was then threaded underneath the trachea using forceps. The ends of the suture were then pulled cranially to ‘stretch’ the trachea toward the surgeon. A 20-G needle was then used to poke a hole in the trachea as close to the larynx as possible. A 22-G blunt stainless steel needle connected to PE tubing was placed in the hole and inserted approximately 5–8 mm into the trachea. The cannula was secured in the trachea by tying the suture around it with an overhand knot. A 1-ml syringe containing 0.4 ml saline was gently pushed forward and backward three times to recover BALF fluid. BALF was transferred into empty tubes and stored on ice. This process was repeated twice with 0.3 ml saline for a total volume of 1 ml.
(§2) Total cell numbers were counted with a standard hemocytometer by mixing 20 μl BALF with 20 μl trypan blue. Cytospins were prepared by cytocentrifugation using Cytospins at 106g for 5 min, and then smears of BALF cells were stained with Diff-Quick stain. Cell differentiation was performed by counting at least 400 cells using standard hemocytologic criteria to classify them as alveolar macrophages or monocytes, neutrophils, eosinophils or lymphocytes. The rest of the BALF fluid was centrifuged, and supernatants were collected and stored at −80 °C for cytokine, chemokine and total protein analysis.
(§3) From the collected BALF, concentrations of cytokines were measured from mice in groups 2–7 killed on day 28. Mouse BALF cytokines and chemokines were measured using the ELISA Analysis Kit (Sinobest Bio). Mouse BALF soluble collagen was measured using the Soluble Collagen kit (Biocolor). Mouse lung hydroxyproline content was measured using the Hydroxyproline Assay Kit (Njjcbio).

[2] = system: cyclin-dependent kinase (CDK)2; conditions: 0.1 μM; cited from earlier work
C57BL/6 mice [3] = assay: Bleomycin-induced lung fibrosis model; type: in vivo, mouse; conditions: individual animals
Protocol: (§4) Mice received bleomycin on day 1 at a dose of 0.66 mg per kg (equivalent to 1 U per kg), in a volume of 50 μl by intratracheal administration, or received saline (sham group). On day 7, dosing with the corresponding compounds was started. The vehicle group (group 1) was treated with 0.5% methylcellulose BID. […] On days 5 and 21, lung function measurement was performed. On day 28, all animals were killed, and blood and tissue samples were collected along with BALF.
(§5) Lung function was measured according to the HDB standard protocol. Expiratory time, relaxation time, peak expiratory flow and peak inspiratory flow were collected and used to calculate Penh data.
as §1, §2, §3
Left lung lobes were removed from each mouse and fixed in 10% NBF solution, embedded in paraffin and processed to obtain 4-μm sections for staining with H&E. H&E-stained slides were scanned using an Aperio ScanScope Model CS2 (Leica) at ×200 magnification. Images were then opened in the HALO Plus 5 workstation (version 2.3, Indica Labs) program. Using the pen annotation tool, the whole-lung section was selected as an annotation layer. The area of vessels was defined as background using the exclusion drawing tool. The total inflammation area was quantified by selecting the dark blue inflammation cells using the pen annotation tool manually. The percentage of H&E staining (inflammation area/total area of the lung) in the selected annotation was then calculated using the program.
Masson’s trichrome staining was conducted using a ready-to-use kit (Trichrome Stain (Masson) Kit, HT15, Sigma-Aldrich) as described by the manufacturer.
Lung sections were cut at a thickness of 4 μm, dried in an oven for 1 h and stained with M&T using our standard protocol.

C57BL/6 mice [4] = assay: Bleomycin-induced lung fibrosis model, combination with pirfenidone; type: in vivo, mouse; conditions: PFD 60 BID
Protocol: as §4, §5
Lung sections were cut at a thickness of 4 μm, dried in an oven for 1 h and stained with M&T using our standard protocol. Briefly, sections were stained with Weigert’s iron hematoxylin working solution for 10 min, stained in Biebrich scarlet–acid fuchsin solution for 10 min, differentiated in phosphomolybdic–phosphotungstic acid solution for 5 min or until the collagen was not red, transferred to aniline blue solution, stained for 1 min and then dedifferentiated in 1% acetic acid solution. Next, sections were dehydrated and coverslipped for subsequent image analysis. For image analysis of collagen deposition, Masson’s trichrome-stained slides were scanned by using Aperio ScanScope Model CS2 (Leica) at ×200 magnification. Images were then opened with HALO. Using the pen tool, the whole left lung section was selected as an annotation layer. The area occupied by blue collagen fibers was measured using the pen tool. The percentage of fibrosis (positive areas) in the selected annotation was then calculated with the program. Fibrosis was expressed as a percentage per lung section.
Sections (4 μm thick) were placed on slides, and, after overnight drying, paraffin was removed with xylene. Next, sections were placed in a graded ethanol series and immersed in distilled water. After heat-induced citrate antigen (pH 6.0) unmasking, sections were immersed in 3% hydrogen peroxide solution for 5 min. […] Next, secondary antibodies conjugated to HRP were added. For image analysis of fibrosis, stained sections were used and scanned with the Aperio CS2 Scanner machine. Images were then opened with HALO. Using the pen tool, the whole left lung section was selected as an annotation layer. The bronchus was excluded in the annotation layer. The area occupied by collagen fibers was measured using the ‘Area Quantification v2.1.3’ module. The percentage of positive areas in the selected annotation was then calculated using the program.

Sprague Dawley rats = assay: Bleomycin-induced lung fibrosis model, inhalation administration; type: in vivo, rat; conditions: Pirfenidone 350 mg/kg; individual animals, Fig 4
Protocol: On day 1 of the study, bleomycin hydrochloride was administered to 8–9-week-old Sprague Dawley rats at a final concentration of 1.5 mg ml^−1 in sodium chloride solution (dosed volume at 1.0 ml per kg) by intratracheal atomization (once in the morning and once in the afternoon) to build the pulmonary fibrosis model.
A German PARI compression atomizer (PARI TurboBOY) was set at an aerosol flow rate of 9–10 l min^−1. […] The dilution flow of aerosol was set at 0 l min^−1, and the pumping-out flow from the chamber was set at 6 l min^−1. The fluid rate was set at 0.5 ml min^−1 for test article replenishment. Before nebulization, aerosol-generation conditions were validated three times.
And these parameters were recorded in real time during the experiment.
For concentration assessment, a glass fiber filter membrane (φ = 37 mm) was used to measure aerosol concentrations during drug administration from approximately day 8 to day 28. Sampling was taken at 5 min (±1 min) after drug administration from a random exposure port. […] Aerosol particle size parameters were calculated with the system software: median mass aerodynamic diameter (MMAD), geometric standard deviation, fine particle fraction (percentage of fine particles with MMAD < 5 μm), etc.
On day 29 and before euthanasia, animals were anesthetized with chloral hydrate (90 mg ml^−1, 5 ml per kg, i.p.). Necks were cut longitudinally at the middle to isolate trachea, and a catheter was intubated into the trachea toward the tail direction and fixed with a suture thread. The anesthetized animals were placed into the plethysmography chamber, to which the airway was connected. The AniRes2005 animal lung function-analysis system was used to assess parameters including FVC, airway resistance and pulmonary compliance. The ventilator respiration rate was set to 65 beats per minute; the respiration ratio was set to 20:10; the negative pressure controller was set to 30 cm H2O. FVC detection was set to pressure-control mode, while pressure was set to 30 cm H2O. The startup mode was selected to automatically detect at the end of breath, and the ‘Start’ button was clicked to passively inhale and then turned to exhale after reaching the set pressure value. Next, the ‘Stop’ button was clicked to complete an FVC detection. Each animal was evaluated for FVC at least five times. The final result was the mean value after the maximum and minimum data were excluded for analysis.

C57BL/6 mice [5] = assay: Unilateral ureteral obstruction (UUO) kidney fibrosis model; conditions: SB525334 100 mg/kg QD, individual animals, Fig 5C-D;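 note: mice had the left ureter ligated on day 0, received treatment from day 0 through day 14 and were killed on day 14 for kidney analysis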
Protocol: The surgery took place on two separate days. Mice were divided into two slots based on their body weight before the day of the surgery. On day 0 (day of surgery), UUO surgery was performed after administration of three types of mixed anesthetic agents (medetomidine, midazolam, butorphanol). Mice were shaved at the incision site, the abdomen was cut open, and the left ureter was exteriorized and ligated with 4-0 silk sutures at two points. Finally, the peritoneum and the skin were closed with sutures.
Treatments were applied from day 0 to day 14. And animals were killed on day 14, and blood and tissue samples were collected.
Frozen kidney samples were processed by an alkaline acid hydrolysis method as follows. […] Next, AC buffer (2.2 M acetic acid and 0.48 M citric acid, 400 μl) was added to the samples, followed by centrifugation to collect the supernatant. […] The samples were then mixed with Ehrlich’s solution (400 μl) and heated at 65 °C for 20 min to develop color. After samples were cooled on ice and centrifuged to remove precipitates, the optical density of each supernatant was measured at 560 nm. Hydroxyproline concentrations were calculated from the hydroxyproline standard curve. Kidney hydroxyproline contents were expressed as μg per mg protein, and the amount of protein was determined using the BCA Protein Assay Kit (Thermo Fisher Scientific).
At the end of the UUO study, the left kidney was fixed in Bouin’s solution and embedded in paraffin. Kidney sections were stained using picro-Sirius red solution (Waldeck). To quantify the interstitial fibrosis area, brightfield images in the corticomedullary region were captured using a digital camera (DFC295) at 200-fold magnification, and the positive areas in five fields per section were measured using ImageJ software (National Institute of Health).
Paraffin sections were deparaffinized and hydrophilized with xylene, 100–70% alcohol series and RO water, and then circles were drawn around the kidney sections. […] After washing with PBS, kidney sections were treated with PBS with Tween-20 (PBST), followed by incubation with Block Ace (DS Pharma Biomedical) at room temperature for 10 min. The sections were incubated with the primary antibody (anti-collagen I) at 4 °C overnight. After washing with PBS, kidney sections were treated with PBST, followed by incubation with secondary antibody at room temperature for 30 min. After washing with PBS, kidney sections were fixed with 1% glutaraldehyde solution at room temperature for 1 min. After washing with RO water, kidney sections were treated with PBST and then colored using a chromogenic substrate (Simple Stain DAB, Nichirei Bioscience). After washing with RO water, kidney sections were immersed in an eightfold-diluted hematoxylin solution for 1 min and washed with RO water immediately. […] For scoring of IHC analyses, brightfield images were captured using a digital camera (DFC295) at 200-fold magnification, and the score in one field per section was determined.

[6] = G5 Nintedanib 60mpk QD, Fig 3B-C

C[C@@H]1C[C@H]2[C@@H]3CCC4=CC(=O)C=C[C@]4(C)[C@@]3(F)[C@@H](O)C[C@]2(C)[C@@]1(O)C(=O)CO [Dexamethasone, reference compound]
IL-1β (C57BL/6 mice [1]): 90.1547 and 104.645 and 85.96 and 83.2907 and 79.4774 and 99.688 and 85.1973 and 77.1894
IL-4 (C57BL/6 mice [1]): 38.428 and 35.2518 and 35.7056 and 41.1504 and 38.1255 and 36.613 and 38.8817 and 44.3266
IL-6 (C57BL/6 mice [1]): 27.9 and 24.66 and 28.93 and 26.28 and 30.56 and 33.5 and 31.73 and 30.41
IL-7 (C57BL/6 mice [1]): 25.06 and 25.43 and 30.03 and 28.19 and 29.85 and 32.24 and 34.63 and 29.29
Lymphocytes (C57BL/6 mice [1]): 11000 and 9300 and 5750 and 9600 and 6400 and 32400 and 4950 and 10750
TNF-alpha (C57BL/6 mice [1]): 362.89 and 452.57 and 397.89 and 371.64 and 437.26 and 448.2 and 351.95 and 301.64

OC1CCC(Oc2cccc3cnc(Nc4ccc5nc[nH]c5c4)nc23)CC1 (stereo not drawn) [NCB-0846]
inhibition [2]: > 80%

COC(=O)c1ccc2c(c1)NC(=O)/C2=C(\Nc1ccc(N(C)C(=O)CN2CCN(C)CC2)cc1)c1ccccc1 [Nintedanib, reference compound]
HE staining (inflammation area) (C57BL/6 mice [3]; 60mpk QD): 0.45 and 0.15 and 0.63 and 0.09 and 1.34 and 0.26 and 0.72 and 0.83 and 1.48 and 0.9
IL-1beta in BALF (C57BL/6 mice [3]; 60mpk QD): 168.67 and 169.31 and 175.04 and 171.22 and 152.11 and 187.14 and 147.65 and 164.21
IL-6 in BALF (C57BL/6 mice [3]; 60mpk QD): 147.17 and 136.31 and 119.43 and 143.55 and 137.52 and 155.01 and 125.46 and 138.12 and 158.63
monocytes, cell count in BALF (C57BL/6 mice [3]; 60mpk QD): 87000 and 128700 and 121600 and 174600 and 58800 and 161100 and 39800 and 37000 and 99000 and 75600
neutrophils, cell count in BALF (C57BL/6 mice [3]; 60mpk QD): 0
Lung function (Penh) (C57BL/6 mice [3]; [6]): 0.5478 and 2.603 and 0.6904 and 2.472 and 0.7934 and 0.9276 and 0.6395 and 0.7208 and 1.0675 and 0.6757 and 1.195 and 2.42 and 0.41
Masson Trichrome's staining (C57BL/6 mice [3]; [6]): 0.55 and 0.4 and 0.78 and 0.03 and 1.61 and 0.54 and 0.87 and 0.56 and 1.52 and 0.39
Modified Ashcroft Score (C57BL/6 mice [3]; [6]): 3.5 and 2.5 and 1.75 and 1.25 and 2.25 and 3.25 and 0.5
collagen I (C57BL/6 mice [3]; [6]): 2.73 and 0.02 and 0.37 and 0.05 and 0.16 and 0.9 and 0.94 and 0.03 and 0.07
α-SMA (C57BL/6 mice [3]; [6]): 0.19 and 0.04 and 0.06 and 0.17 and 0.42 and 0.08 and 0.45 and 0.15 and 0.22 and 0.14

Cc1ccc(=O)n(-c2ccccc2)c1 [PFD, reference compound]
Modified Ashcroft Score (C57BL/6 mice [4]): 4.5 and 5.25 and 5 and 4.75 and 5.5 and 4.25
Cdyn (Sprague Dawley rats): 0.3225 mL/cmH2O and 0.3123 mL/cmH2O and 0.3091 mL/cmH2O and 0.2795 mL/cmH2O and 0.2995 mL/cmH2O and 0.311 mL/cmH2O and 0.2781 mL/cmH2O and 0.3041 mL/cmH2O and 0.3215 mL/cmH2O and 0.2768 mL/cmH2O and 0.3388 mL/cmH2O and 0.3313 mL/cmH2O
FVC (Sprague Dawley rats): 11.834 and 11.621 and 10.998 and 9.152 and 10.235 and 10.576 and 10.334 and 10.683 and 12.105 and 9.791 and 11.908 and 11.529
HE staining for inflammatory infiltration (Sprague Dawley rats): 7.178 and 19.4033 and 79.9063 and 22.6394 and 11.901 and 21.4024 and 18.4629 and 10.7655 and 14.7132 and 7.539 and 10.0121 and 11.9271
MT staining for fibrosis (Sprague Dawley rats): 10.0525 and 23.681 and 70.2292 and 22.9771 and 14.4065 and 16.7608 and 19.0061 and 11.0741 and 14.7041 and 7.51 and 11.2668 and 15.3486
Modified Ashcroft Score (Sprague Dawley rats): 2.42 and 3.08 and 3.92 and 2.83 and 3.17 and 2.75 and 2 and 2.08 and 2.33 and 2.5
RL (Sprague Dawley rats): 0.1938 cmH2O and 0.2018 cmH2O and 0.2011 cmH2O and 0.2233 cmH2O and 0.2084 cmH2O and 0.2023 cmH2O and 0.2267 cmH2O and 0.2069 cmH2O and 0.196 cmH2O and 0.2278 cmH2O and 0.184 cmH2O and 0.1887 cmH2O

Cc1cccc(-c2[nH]c(C(C)(C)C)nc2-c2ccc3nccnc3c2)n1 [SB525334, reference compound]
Collagen Type 1 score (C57BL/6 mice [5]): 1
Fibrosis area (sirius red positive area) (C57BL/6 mice [5]; 100 mg/kg): 0.79 and 1.13 and 0.97 and 0.36 and 0.56 and 0.41 and 0.76 and 0.48
Kidney hydroxyproline (C57BL/6 mice [5]; 100 mg/kg): 3.88 and 4.04 and 4.13 and 2.51 and 3.1 and 4.54 and 4.91
